Assay results reported in patent US20050143321A1, “Composition with stabilized redox properties and method of stabilization of redox properties” (priority 2002, published 2005).

Legend:
Klebsiella pneumoniae = test: Sensitivity of bacteria to antibiotics dissolved in composition, diffusion into nutrient agar; type: cell-based; design: Rate of increase of sensitivity of bacteria (increase of diameters of zones of suppression vs control): concentration or dose not given beside the values; conditions: for Rate of increase of sensitivity of bacteria (increase of diameters of zones of suppression vs control): Clebsiella, antibiotic dissolved in composition pH=7.9, Eh=−230 mV
Procedure: (§1) It was used the method of preparations diffusion into nutrient agar. […] It was used sterilized water with Eh=250 mV, SCE, pH=7.9 and mineralization 350 mg/l for control.

Salmonella sp. = test: as above; type: cell-based; design: Rate of increase of sensitivity of bacteria (increase of diameters of zones of suppression vs control): concentration or dose not given beside the values; conditions: for Rate of increase of sensitivity of bacteria (increase of diameters of zones of suppression vs control): Salmonella, antibiotic dissolved in composition pH=7.9, Eh=−230 mV; for change of strain sensitivity: antibiotic dissolved in composition
Procedure: as §1

S. aureus = test: as above; type: cell-based; conditions: for Rate of increase of sensitivity of bacteria (increase of diameters of zones of suppression vs control): Staphylococcus, antibiotic dissolved in composition pH=7.9, Eh=−230 mV
Procedure: as §1

Shigella sp. = test: as above; type: cell-based; conditions: for Rate of increase of sensitivity of bacteria (increase of diameters of zones of suppression vs control): Shigella, antibiotic dissolved in composition pH=7.9, Eh=−230 mV; for change of strain sensitivity: antibiotic dissolved in composition
Procedure: as §1

[1] = Stabilization of redox properties of water solution, 6 months storage at 50° C after autoclaving; type: physicochemical; conditions: autoclaved
Procedure: Water from water supply system with initial characteristics: Eh=+260 mV, SCE, and pH 6.7, is directed to the device of “Izumrud”-type, which is manufactured in Russia. On the output characteristics of water have the values: […] After sterilization these flasks with mentioned water solutions are put into the thermostat at temperature 50° C. Flasks with water solutions corresponding to this invention and stored at the mentioned temperature, protected from light, during 6 months. After 6 months flasks are opened, and the redox potential is measured.

[2] = Content of MDA in liposome dispersions (oxidation of phospholipids); type: physicochemical; conditions: Yolk lecithin liposomes; 1 hour
Procedure: In the experiment liposomes are made by mixing and ultrasound treatment of phospholipids of yolk and the water solution, corresponding to this invention, with specified redox properties, containing glycine. Liposomes, prepared by this method, are the milk-white suspension. […] Electrochemically activated water: anomalous properties, mechanism of biological effect. Moscow 1997, […]. 152). There was also determined the rate of oxidation of phospholipids according to content of dialdehyde malonate (DMA).

[3] = antibiotic dissolved in composition

## NCC[C@H](O)C(=O)N[C@@H]1C[C@H](N)[C@@H](O[C@H]2O[C@H](CN)[C@@H](O)[C@H](O)[C@H]2O)[C@H](O)[C@H]1O[C@H]1O[C@H](CO)[C@@H](O)[C@H](N)[C@H]1O [Amicacin]
Klebsiella pneumoniae
  Rate of increase of sensitivity of bacteria (increase of diameters of zones of suppression vs control): 34%
Klebsiella pneumoniae; [3]
  change of sensitivity: increased
Salmonella sp.
  Rate of increase of sensitivity of bacteria (increase of diameters of zones of suppression vs control): 18%
S. aureus
  Rate of increase of sensitivity of bacteria (increase of diameters of zones of suppression vs control): 4%
Shigella sp.
  Rate of increase of sensitivity of bacteria (increase of diameters of zones of suppression vs control): 38%
  change of strain sensitivity: from medium sensitive to sensitive

## CC1(C)S[C@@H]2[C@H](NC(=O)[C@H](N)c3ccccc3)C(=O)N2[C@H]1C(=O)O [Ampicillin]
Klebsiella pneumoniae
  Rate of increase of sensitivity of bacteria (increase of diameters of zones of suppression vs control): 7%
Salmonella sp.
  Rate of increase of sensitivity of bacteria (increase of diameters of zones of suppression vs control): 26%
  change of strain sensitivity: from medium sensitive to sensitive
S. aureus
  Rate of increase of sensitivity of bacteria (increase of diameters of zones of suppression vs control): 22%
S. aureus; [3]
  change of sensitivity: increased
Shigella sp.
  Rate of increase of sensitivity of bacteria (increase of diameters of zones of suppression vs control): 44%
  change of strain sensitivity: from resistant to sensitive

## NC(=O)C[C@H](N)C(=O)O [Asparagine]
[1]; 0.005% of weight
  pH after 6 months: 5.9
[1]; 0.5% of weight
  pH after 6 months: 6.9
[1]; 10% of weight
  pH after 6 months: 7.0

## O=C(N[C@H](CO)[C@H](O)c1ccc([N+](=O)[O-])cc1)C(Cl)Cl [Chloramphenicol]
Klebsiella pneumoniae
  Rate of increase of sensitivity of bacteria (increase of diameters of zones of suppression vs control): 5%
Salmonella sp.
  Rate of increase of sensitivity of bacteria (increase of diameters of zones of suppression vs control): 6%
S. aureus
  Rate of increase of sensitivity of bacteria (increase of diameters of zones of suppression vs control): 3%
Shigella sp.
  Rate of increase of sensitivity of bacteria (increase of diameters of zones of suppression vs control): 17%

## N[C@@H](CS)C(=O)O [Cysteine]
[1]; 0.005% of weight
  pH after 6 months: 7.3
[1]; 0.5% of weight
  pH after 6 months: 7.8
[1]; 10% of weight
  pH after 6 months: 6.9

## NC(=O)CC[C@H](N)C(=O)O [Glutamine]
[1]; 0.005% of weight
  pH after 6 months: 5.8
[1]; 0.5% of weight
  pH after 6 months: 7.2
[1]; 10% of weight
  pH after 6 months: 7.2

## NCC(N)=O [Glycine amide]
[1]; 0.005% of weight
  pH after 6 months: 6.5
[1]; 0.5% of weight
  pH after 6 months: 7.4
[1]; 10% of weight
  pH after 6 months: 7.0

## NCC(=O)O [Glycine]
[1]; 0.005% of weight
  pH after 6 months: 7.2
[1]; 0.5% of weight
  pH after 6 months: 7.9
[1]; 10% of weight
  pH after 6 months: 7.7

## NC[C@H]1O[C@H](O[C@H]2[C@H](O)[C@@H](O[C@H]3O[C@H](CO)[C@@H](O)[C@H](N)[C@H]3O)[C@H](N)C[C@@H]2N)[C@H](O)[C@@H](O)[C@@H]1O [Kanamycin]
Klebsiella pneumoniae
  Rate of increase of sensitivity of bacteria (increase of diameters of zones of suppression vs control): 12%
Salmonella sp.
  Rate of increase of sensitivity of bacteria (increase of diameters of zones of suppression vs control): 18%
S. aureus
  Rate of increase of sensitivity of bacteria (increase of diameters of zones of suppression vs control): 8%
Shigella sp.
  Rate of increase of sensitivity of bacteria (increase of diameters of zones of suppression vs control): 35%

## CCn1cc(C(=O)O)c(=O)c2ccc(C)nc21 [Nalidixic acid]
Klebsiella pneumoniae
  Rate of increase of sensitivity of bacteria (increase of diameters of zones of suppression vs control): 11%
Salmonella sp.
  Rate of increase of sensitivity of bacteria (increase of diameters of zones of suppression vs control): 42%
  change of strain sensitivity: from resistant to sensitive
S. aureus
  Rate of increase of sensitivity of bacteria (increase of diameters of zones of suppression vs control): 3%
Shigella sp.
  Rate of increase of sensitivity of bacteria (increase of diameters of zones of suppression vs control): 33%

## N[C@@H](CO)C(=O)O [Serine]
[1]; 0.005% of weight
  pH after 6 months: 7.1
[1]; 0.5% of weight
  pH after 6 months: 7.8
[1]; 10% of weight
  pH after 6 months: 7.6

## C[C@@H](O)[C@H](N)C(=O)O [Threonine]
[1]; 0.005% of weight
  pH after 6 months: 7.1
[1]; 0.5% of weight
  pH after 6 months: 7.5
[1]; 10% of weight
  pH after 6 months: 7.4

## N[C@@H](Cc1ccc(O)cc1)C(=O)O [Tyrosine]
[1]; 0.005% of weight
  Eh after 6 months: −5 mV
  pH after 6 months: 7.2
[1]; 0.5% of weight
  Eh after 6 months: −80 mV
  pH after 6 months: 7.4
[1]; 10% of weight
  Eh after 6 months: −30 mV
  pH after 6 months: 7.2

## Cc1cc(C(C)(C)C)c(O)c(C(C)(C)C)c1 [Water + agidol (1.0%), agidol]
[2]
  Content of MDA: 2.0 nmol/mL

## Cc1cc(C(C)(C)C)c(O)c(C(C)(C)C)c1 [Water + butyl-hydroxytoluene (0.1%), butyl-hydroxytoluene]
[2]
  Content of MDA: 2.7 nmol/mL

## CC(=O)Oc1c(C)c(C)c2c(c1C)CCC(C)(CCC[C@H](C)CCC[C@H](C)CCCC(C)C)O2 (some centres unmarked) [Water + tocopherol acetate (2%), tocopherol acetate]
[2]
  Content of MDA: 3.1 nmol/mL

## Gelatin
[1]; 0.005% of weight
  pH after 6 months: 6.8
[1]; 0.5% of weight
  pH after 6 months: 7.3
[1]; 10% of weight
  pH after 6 months: 7.6

## Gentamycin
Klebsiella pneumoniae
  Rate of increase of sensitivity of bacteria (increase of diameters of zones of suppression vs control): 6%
Salmonella sp.
  Rate of increase of sensitivity of bacteria (increase of diameters of zones of suppression vs control): 47%
  change of strain sensitivity: from resistant to sensitive
S. aureus
  Rate of increase of sensitivity of bacteria (increase of diameters of zones of suppression vs control): 11%
Shigella sp.
  Rate of increase of sensitivity of bacteria (increase of diameters of zones of suppression vs control): 40%
  change of strain sensitivity: from resistant to sensitive
